Data published in patent EP0017970A1, “Novel beta-lactam derivatives and process for production thereof” (SANRAKU-OCEAN CO., LTD., priority 1979, dated 1980).
Values after ≈ are worked out from the molar mass of the structure shown. Where a name gives a salt, the structure may show the parent alone.

Key:
Alcaligenes faecalis A 1 = test: MIC, agar dilution assay; format: cell-based; conditions: 35°C for 20 hours; for MIC: Alcaligenes faecalis, A1, 20 h, read-out: Antibiotic Activity minimum inhibitory concentration
Procedure: (§1) The antibiotic activities shown in Tables 1-1 to 1-9 above were determined in the following manner. The minimum inhibitory concentrations of the compounds of formula (VI-b) in Tables I-1 to 1-8 and the known compounds in Table 1-9 on the various microorganisms shown in the above tables were measured by an agar dilution assay method using a brain heart infusion agar medium "Difco" (a product of Difco Laboratories Inc.). A sample of the test compound was dissolved in sterile distilled water and diluted to prepare a twofold dilution series of the compound solution. In a betri dish of 9 cm in diameter, 1 ml of the compound solution was added to 9 ml of a molten sterile heart infusion agar medium (Difco Laboratories Inc.) at. about 60°C to prepare an agar plate containing the compound. An overnight culture of each test organism indicated in the above table, which was prepared by stationary cultivation in trypto-soy broth (Eiken Chemi. Co., Ltd.) at 35°C for 18 to 20 hours, was diluted with the trypto-soy broth to give approximately 10^8 cells/ml and the diluted inoculum was inoculated in the agar plate. After cultivating the plate at 35°C for 20 hours, the growth of the organism was observed. The minimum concentration of the compound at which no growth of the microorganism was noted was determined, and defined as the minimum inhibitory concentration of the test compound.

[1] = test system: Bacillus subtilis ATCC 6633; test: MIC, agar dilution assay; format: cell-based; conditions: 35°C for 20 hours; for MIC: Bacillus subtilis, ATCC6633, 20 h, read-out: Antibiotic Activity minimum inhibitory concentration
Procedure: as §1

[2] = test system: Comamonas terrigena B-996; test: MIC, agar dilution assay; format: cell-based; conditions: 35°C for 20 hours; for MIC: Comamonas terrigena, B996, 20 h, read-out: Antibiotic Activity minimum inhibitory concentration
Procedure: as §1

[3] = test system: Enterobacter aerogenes E19; test: MIC, agar dilution assay; format: cell-based; conditions: 35°C for 20 hours; for MIC: Klebsiella aerogenes, E19, 20 h, read-out: Antibiotic Activity minimum inhibitory concentration
Procedure: as §1

Enterobacter sp. E8 = test: MIC, agar dilution assay; format: cell-based; conditions: 35°C for 20 hours; for MIC: Enterobacter, SP.E8, 20 h, read-out: Antibiotic Activity minimum inhibitory concentration
Procedure: as §1

Escherichia coli K-12 = test: MIC, agar dilution assay; format: cell-based; conditions: 35°C for 20 hours; for MIC: Escherichia coli, K12, 20 h, read-out: Antibiotic Activity minimum inhibitory concentration
Procedure: as §1

[4] = test system: Klebsiella pneumoniae K-13; test: MIC, agar dilution assay; format: cell-based; conditions: K13, 35°C for 20 hours, read-out: Antibiotic Activity minimum inhibitory concentration
Procedure: as §1

Proteus rettgeri P7 = test: MIC, agar dilution assay; format: cell-based; conditions: 35°C for 20 hours; for MIC: Providencia rettgeri, P7, 20 h, read-out: Antibiotic Activity minimum inhibitory concentration
Procedure: as §1

Proteus sp. P22 = test: MIC, agar dilution assay; format: cell-based; conditions: 35°C for 20 hours, read-out: Antibiotic Activity minimum inhibitory concentration
Procedure: as §1

Proteus vulgaris GN76 = test: MIC, agar dilution assay; format: cell-based; conditions: 35°C for 20 hours, read-out: Antibiotic Activity minimum inhibitory concentration
Procedure: as §1

Providencia sp. P8 = test: MIC, agar dilution assay; format: cell-based; conditions: 35°C for 20 hours; for MIC: Providencia, SP.P8, 20 h, read-out: Antibiotic Activity minimum inhibitory concentration
Procedure: as §1

[5] = test system: Pseudomonas aeruginosa IFO3445; test: MIC, agar dilution assay; format: cell-based; conditions: 35°C for 20 hours, read-out: Antibiotic Activity minimum inhibitory concentration
Procedure: as §1

[6] = test system: Pseudomonas aeruginosa NCTC10490; test: MIC, agar dilution assay; format: cell-based; conditions: 35°C for 20 hours, read-out: Antibiotic Activity minimum inhibitory concentration
Procedure: as §1

Sarcina lutea = test: MIC, agar dilution assay; format: cell-based; conditions: 35°C for 20 hours; for MIC: Micrococcus luteus, 20 h, read-out: Antibiotic Activity minimum inhibitory concentration
Procedure: as §1

Serratia marcescens S18 = test: MIC, agar dilution assay; format: cell-based; conditions: 35°C for 20 hours; for MIC: Serratia marcescens, S18, 20 h, read-out: Antibiotic Activity minimum inhibitory concentration
Procedure: as §1

Serratia marcescens T55 = test: MIC, agar dilution assay; format: cell-based; conditions: 35°C for 20 hours; for MIC: Serratia marcescens, T55, 20 h, read-out: Antibiotic Activity minimum inhibitory concentration
Procedure: as §1

[7] = test system: Staphylococcus aureus FDA 209P; test: MIC, agar dilution assay; format: cell-based; conditions: 35°C for 20 hours; for MIC: Staphylococcus aureus, FDA209P, 20 h, read-out: Antibiotic Activity minimum inhibitory concentration
Procedure: as §1

[8] = test system: Staphylococcus aureus Russell; test: MIC, agar dilution assay; format: cell-based; conditions: 35°C for 20 hours; for MIC: Staphylococcus aureus, 20 h, read-out: Antibiotic Activity minimum inhibitory concentration
Procedure: as §1

[9] = test system: Staphylococcus aureus Smith; test: MIC, agar dilution assay; format: cell-based; conditions: 35°C for 20 hours; for MIC: Staphylococcus aureus, 20 h, read-out: Antibiotic Activity minimum inhibitory concentration
Procedure: as §1

[10] = test system: Staphylococcus epidermidis; test: MIC, agar dilution assay; format: cell-based; conditions: 35°C for 20 hours; for MIC: 20 h, read-out: Antibiotic Activity minimum inhibitory concentration
Procedure: as §1

[11] = Solubility (physical and chemical properties); format: physicochemical
Procedure: The resulting powder was dissolved in 1 ml of a phosphate buffer (M/100, pH 8.4), and charged onto a column (1.1 x 90 cm) of Sephadex G-10 (a product of Pharmacia Fine Chemicals, Co.), and developed with the same buffer. The active fractions were collected by measuring their ultraviolet absorptions (λ300 nm). These fractions were adsorbed to a column (1.1 x 20 cm) of QAE Sephadex A-25 equilibrated with phosphate buffer (M/100, pH 8.4), and the column was eluted with 200 ml of phosphate buffer (M/100, pH 8.4) having a sodium chloride concentration linearly varying from 0 to O.lM by a concentration gradient method. The ultraviolet absorption (X300 nm) of each of the fractions was measured, and the active fractions were collected. Sodium chloride was added to the active fractions so that the concentration of sodium chloride reached 3% (w/v). The mixture was adsorbed to a column (1.1 x 20 cm) of Diaion HP-20AG (200 - 400 mesh), and eluted with water. The eluates were lyophilized to afford 5 mg of the sodium salt of PS-3 as a white dry powder. The physical and chemical properties of the product were as follows: • 1) Color Colorless • 2) Solubility

[12] = Reaction with hydroxylamine, loss of UV absorbance; format: physicochemical; conditions: about 20 µg/ml, hydroxylamine 10 mM, pH 7.5, 22°C for 30 minutes
Procedure: An aqueous solution of hydroxylamine having a pH of 7.5 is added to a solution of the above substance in deionized water so that the concentration of the antibiotic PS-3 to about 20 µg/ml and the concentration of hydroxylamine to 10 mM. When the mixed solution is allowed to stand at 22°C for 30 minutes, about 93% of its absorbance at 300.0 nm disappears.

[13] = test system: Citrobacter freundii GN 346; test: MIC, agar dilution assay; format: cell-based; conditions: GN346, 20 h, 35°C for 20 hours, read-out: Antibiotic Activity minimum inhibitory concentration
Procedure: as §1

Enterobacter cloacae 45 = test: MIC, agar dilution assay; format: cell-based; conditions: Enterobacter cloacae, 45, 20 h, 35°C for 20 hours, read-out: Antibiotic Activity minimum inhibitory concentration
Procedure: as §1

Escherichia coli RGN 823 = test: MIC, agar dilution assay; format: cell-based; conditions: RGN823, 20 h, 35°C for 20 hours, read-out: Antibiotic Activity minimum inhibitory concentration
Procedure: as §1

Proteus mirabilis P6 = test: MIC, agar dilution assay; format: cell-based; conditions: P6, 20 h, 35°C for 20 hours, read-out: Antibiotic Activity minimum inhibitory concentration
Procedure: as §1

| SMILES | MIC [2] [µg/mL] | MIC [4] [µg/mL] | MIC (Proteus sp. P22) [µg/mL] | MIC (Proteus vulgaris GN76) [µg/mL] | MIC [5] [µg/mL] | MIC [6] [µg/mL] | MIC (Serratia marcescens S18) [µg/mL] | MIC (Alcaligenes faecalis A 1) [µg/mL] | MIC [1] [µg/mL] | MIC [13] [µg/mL] | MIC [3] [µg/mL] | MIC (Enterobacter cloacae 45) [µg/mL] | MIC (Enterobacter sp. E8) [µg/mL] | MIC (Escherichia coli K-12) [µg/mL] | MIC (Escherichia coli RGN 823) [µg/mL] | MIC (Proteus mirabilis P6) [µg/mL] | MIC (Proteus rettgeri P7) [µg/mL] | MIC (Providencia sp. P8) [µg/mL] | MIC (Sarcina lutea) [µg/mL] | MIC (Serratia marcescens T55) [µg/mL] | also measured |
| --- | --- | --- | --- | --- | --- | --- | --- | --- | --- | --- | --- | --- | --- | --- | --- | --- | --- | --- | --- | --- | --- |
| CC(O)[C@H]1C(=O)N2C(C(=O)O)=C(Sc3ccncc3)C[C@H]12 (relative stereo) [Table I-1 R1=-OH*] | 0.013 (≈ 0.0424 µM) | 25 (≈ 81.6 µM) | 50 (≈ 163 µM) | 50 (≈ 163 µM) | 1.56 (≈ 5.09 µM) | 1.56 (≈ 5.09 µM) | 100 (≈ 326 µM) | – | – | – | – | – | – | – | – | – | – | – | – | – | Antibiotic Activity minimum inhibitory concentration (Alcaligenes faecalis A 1): <0.007 µg/mL; Antibiotic Activity minimum inhibitory concentration [1]: <0.007 µg/mL; Antibiotic Activity minimum inhibitory concentration [2]: <0.007 µg/mL; Antibiotic Activity minimum inhibitory concentration [3]: 1.56 µg/mL; Antibiotic Activity minimum inhibitory concentration (Enterobacter sp. E8): 0.025 µg/mL; Antibiotic Activity minimum inhibitory concentration (Escherichia coli K-12): 0.05 µg/mL; Antibiotic Activity minimum inhibitory concentration (Proteus rettgeri P7): 0.78 µg/mL; Antibiotic Activity minimum inhibitory concentration (Providencia sp. P8): 0.20 µg/mL; Antibiotic Activity minimum inhibitory concentration (Sarcina lutea): <0.007 µg/mL; Antibiotic Activity minimum inhibitory concentration (Serratia marcescens S18): 50 µg/mL; Antibiotic Activity minimum inhibitory concentration (Serratia marcescens T55): 25 µg/mL; Antibiotic Activity minimum inhibitory concentration [7]: <0.007 µg/mL; Antibiotic Activity minimum inhibitory concentration [8]: <0.007 µg/mL; Antibiotic Activity minimum inhibitory concentration [9]: <0.007 µg/mL; Antibiotic Activity minimum inhibitory concentration [10]: <0.007 µg/mL |
| CC(=O)NCCSC1=C(C(=O)O)N2C(=O)C(C(C)O)C2C1 (stereo not shown) [PS-3 sodium salt, 3-(2-acetamidoethylthio)-6-(1-hydroxyethyl)-7-oxo-1-azabicyclo[3.2.0]hept-2-ene-2-carboxylic acid] | – | – | – | – | – | – | – | – | – | – | – | – | – | – | – | – | – | – | – | – | Solubility ([11]; in acetone): substantially insoluble; Solubility ([11]; in water): Readily soluble; absorbance at 300.0 nm that disappears [12]: about 93% |
| CC(C)C1C(=O)N2C(C(=O)O)=C(Sc3ccncc3)CC12 (stereo not shown) [Table I-1 R1=-CH3] | 0.007 (≈ 0.023 µM) | 25 (≈ 82.1 µM) | 50 (≈ 164 µM) | 50 (≈ 164 µM) | 1.56 (≈ 5.13 µM) | 1.56 (≈ 5.13 µM) | 50 (≈ 164 µM) | 0.013 (≈ 0.0427 µM) | 0.013 (≈ 0.0427 µM) | 50 (≈ 164 µM) | 12.5 (≈ 41.1 µM) | 50 (≈ 164 µM) | 1.56 (≈ 5.13 µM) | 3.13 (≈ 10.3 µM) | 12.5 (≈ 41.1 µM) | 3.13 (≈ 10.3 µM) | 1.56 (≈ 5.13 µM) | 3.13 (≈ 10.3 µM) | 0.013 (≈ 0.0427 µM) | 100 (≈ 329 µM) | MIC [7]: 0.007 µg/mL (≈ 0.023 µM); MIC [8]: 0.013 µg/mL (≈ 0.0427 µM); MIC [9]: 0.013 µg/mL (≈ 0.0427 µM); MIC [10]: 0.013 µg/mL (≈ 0.0427 µM) |
| CCC1C(=O)N2C(C(=O)O)=C(Sc3ccncc3)CC12 (stereo not shown) [Table I-1 R1=H] | < 0.007 | 14.8 (≈ 51 µM) | 29.5 (≈ 102 µM) | 29.5 (≈ 102 µM) | 0.92 (≈ 3.17 µM) | 0.92 (≈ 3.17 µM) | 29.5 (≈ 102 µM) | < 0.007 | < 0.007 | 29.5 (≈ 102 µM) | 7.4 (≈ 25.5 µM) | 29.5 (≈ 102 µM) | 0.46 (≈ 1.58 µM) | 0.92 (≈ 3.17 µM) | 14.8 (≈ 51 µM) | 1.8 (≈ 6.2 µM) | 1.8 (≈ 6.2 µM) | 0.92 (≈ 3.17 µM) | < 0.007 | 29.5 (≈ 102 µM) | MIC [7]: < 0.007 µg/mL; MIC [8]: < 0.007 µg/mL; MIC [9]: < 0.007 µg/mL; MIC [10]: < 0.007 µg/mL |
